In ChEMBL document CHEMBL2057195, “Design and synthesis of a novel pyrrolidinyl pyrido pyrimidinone derivative as a potent inhibitor of PI3Kα and mTOR” (Bioorg Med Chem Lett, 2012):
Values after ≈ are worked out from the molar mass of the structure shown.

Experiments:
[1] = target: Serine/threonine-protein kinase mTOR (Homo sapiens, UniProt P42345)
[2] = target: Phosphatidylinositol 4,5-bisphosphate 3-kinase catalytic subunit alpha isoform (Mus musculus, UniProt P42337)
Description: Inhibition of mouse PI3Kalpha

physchem = conditions: buffer, pH 6.5
Description: Apparent kinetic solubility of the compound at pH 6.5

[3] = Clearance in rat liver microsomes; assay type: ADME, Microsome; conditions: read-out: CLH
[4] = Cmax in rat at 5 mg/kg, po; assay type: ADME, organism-based; parameters: dose 5 mg/kg, route oral; conditions: in vivo
Liver microsomes [5] = assay: Drug metabolism in human liver microsomes assessed as CYP450-mediated GSH adduct formation in presence of GSH; assay type: ADME, Microsome
[6] = Volume of distribution at steady state in rat at 2 mg/kg, iv; assay type: ADME, organism-based; parameters: dose 2 mg/kg, route intravenous; conditions: in vivo, read-out: Vdss
[7] = Clearance in rat at 2 mg/kg, iv; assay type: ADME, organism-based; parameters: dose 2 mg/kg, route intravenous; conditions: in vivo
[8] = Oral bioavailability in rat at 5 mg/kg; assay type: ADME, organism-based; conditions: in vivo
Liver microsomes [9] = assay: Drug metabolism in human liver microsomes assessed as CYP450-mediated 4-(2-amino-4-methyl-7-oxo-6-(1H-pyrazol-4-yl)pyrido[2,3-d]pyrimidin-8(7H)-ylamino)butanoic acid formation; assay type: ADME, Microsome
[10] = Half life in rat at 2 mg/kg, iv; assay type: ADME, organism-based; parameters: dose 2 mg/kg, route intravenous; conditions: in vivo
Liver microsomes [11] = assay: Drug metabolism in human liver microsomes assessed as CYP450-mediated GSH adduct formation in absence of GSH; assay type: ADME, Microsome

Chain of Phosphatidylinositol 4,5-bisphosphate 3-kinase catalytic subunit alpha isoform (P42337 whole entry, canonical isoform): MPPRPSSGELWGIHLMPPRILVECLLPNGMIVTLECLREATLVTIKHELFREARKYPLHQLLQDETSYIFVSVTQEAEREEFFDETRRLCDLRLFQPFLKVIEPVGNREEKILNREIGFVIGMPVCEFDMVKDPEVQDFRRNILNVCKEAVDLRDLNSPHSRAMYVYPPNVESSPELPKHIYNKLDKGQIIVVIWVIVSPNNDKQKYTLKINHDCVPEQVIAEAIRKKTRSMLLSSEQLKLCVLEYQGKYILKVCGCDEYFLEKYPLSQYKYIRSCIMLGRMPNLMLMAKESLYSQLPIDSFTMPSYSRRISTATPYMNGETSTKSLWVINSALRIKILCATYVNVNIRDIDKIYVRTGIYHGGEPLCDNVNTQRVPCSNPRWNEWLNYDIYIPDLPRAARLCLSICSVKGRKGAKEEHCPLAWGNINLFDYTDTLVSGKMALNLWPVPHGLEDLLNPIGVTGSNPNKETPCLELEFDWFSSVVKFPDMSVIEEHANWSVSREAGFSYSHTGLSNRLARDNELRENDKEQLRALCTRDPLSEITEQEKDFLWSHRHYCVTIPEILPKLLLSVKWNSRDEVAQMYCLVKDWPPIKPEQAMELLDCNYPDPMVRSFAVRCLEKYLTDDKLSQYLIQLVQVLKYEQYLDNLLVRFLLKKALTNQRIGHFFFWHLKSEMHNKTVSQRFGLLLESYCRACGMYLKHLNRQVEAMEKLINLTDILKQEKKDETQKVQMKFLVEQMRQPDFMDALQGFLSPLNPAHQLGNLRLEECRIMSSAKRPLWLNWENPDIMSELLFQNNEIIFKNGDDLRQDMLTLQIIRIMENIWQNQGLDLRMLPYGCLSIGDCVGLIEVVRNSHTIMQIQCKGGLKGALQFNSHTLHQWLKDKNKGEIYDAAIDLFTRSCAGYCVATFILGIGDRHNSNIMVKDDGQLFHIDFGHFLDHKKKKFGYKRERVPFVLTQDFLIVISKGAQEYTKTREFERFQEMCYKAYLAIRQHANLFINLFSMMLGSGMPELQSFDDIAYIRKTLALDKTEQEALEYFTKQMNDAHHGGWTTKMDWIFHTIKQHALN

| Ki [1] [µM] | Ki [2] [µM] | solubility kinetic (physchem) [µM] | Structure (SMILES) | also measured |
| --- | --- | --- | --- | --- |
| 0.142 | 0.00156 | 3.94 (≈ 1.38 µg/mL) | COc1ccc(-c2cc3c(C)nc(N)nc3n(C3CCCC3)c2=O)cn1 |  |
| 0.0512 | 0.007 | 13 (≈ 3.85 µg/mL) | Cc1nc(N)nc2c1cc(-c1cn[nH]c1)c(=O)n2C1CCC1 |  |
|  | 0.138 | 434 (≈ 136 µg/mL) | CCN(CC)n1c(=O)c(-c2cn[nH]c2)cc2c(C)nc(N)nc21 |  |
|  | 0.827 |  | Cc1nc(N)nc2c1cc(-c1cn[nH]c1)c(=O)n2NCC(C)C |  |
| 0.0106 | 0.0125 | 43.1 (≈ 13.4 µg/mL) | Cc1nc(N)nc2c1cc(-c1cn[nH]c1)c(=O)n2N1CCCC1 | Cmax [4]: 0.144 ng/mL; Drug metabolism (Liver microsomes [5]): Not Active; Vd [6]: 2.9 L/kg; clearance [7]: 36.3 mL/min/kg; bioavailability [8]: 52%; Drug metabolism (Liver microsomes [9]): Active; half-life [10]: 54 min; Drug metabolism (Liver microsomes [11]): Not Active |
|  | 0.01 |  | COc1ccc(-c2cc3c(C)nc(N)nc3n(N3CCCC3)c2=O)cn1 |  |

More lines, now with the values behind:

| Structure (SMILES) | Ki [1] [µM] | Ki [2] [µM] | solubility kinetic (physchem) [µM] | also measured |
| --- | --- | --- | --- | --- |
| COc1ccc(-c2cc3c(C)nc(N)nc3n(C3CCC3)c2=O)cn1 | 0.0764 |  | 11.1 (≈ 3.74 µg/mL) |  |
| COc1ccc(-c2cc3c(C)nc(N)nc3n(C3CC3)c2=O)cn1 |  | 0.026 | 16.2 (≈ 5.24 µg/mL) |  |
| Cc1nc(N)nc2c1cc(-c1cn[nH]c1)c(=O)n2C1CC1 | 0.19 | 0.036 | 16.7 (≈ 4.71 µg/mL) |  |
| Cc1nc(N)nc2c1cc(-c1cn[nH]c1)c(=O)n2C(C)C | 0.0235 | 0.0135 | 43.4 (≈ 12.3 µg/mL) | microsomal CLint [3]: 349 µL/min/mg |
